In article PMC8349443 (Journal of the Indian Chemical Society, 2021):

What was measured:
SARS-CoV-2 virus = test: Antiviral potentiality against SARS-CoV-2; type: cell-based; settings: isolate of SARS-CoV-2
[1] = system: plasma C-Reactive Protein (CRP) and procalcitonin; settings: ref [7], [8], [9]; cited from earlier work

N[C@@H](CC(=O)N1CCn2c(nnc2C(F)(F)F)C1)Cc1cc(F)c(F)cc1F [SIT, Sitagliptin]
antiviral activity against SARS-CoV-2 in words (SARS-CoV-2 virus): have antiviral activity against an isolate of SARS-CoV-2 | possible immuno-modulatory effect: plasma CRP and procalcitonin [1]: plasma C-Reactive Protein (CRP) and procalcitonin reduction
